#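 Five concentrations, 48 hours, 96-well plates. GI50: concentration for 50% inhibition of growth.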 Calls of active or inactive are those of the source. Cut-off read from the data, not from the text of the source: active = GI50 up to about 1.1 µM and inactive = higher.
# Columns and labels:
# Experiment in all cases: NCI-60 cell line screen, 48 h
# [1] = tested on: HCC 2998
# [2] = tested on: SW-620
# [3] = tested on: HCT-116
# [4] = tested on: UO-31
# [5] = tested on: SNB-78
# [6] = tested on: OVCAR-3
# [7] = tested on: HOP-92
# [8] = tested on: HT-29
# [9] = tested on: COLO 205
# [10] = tested on: SNB-19
# [11] = tested on: SK-MEL-28
# [12] = tested on: 786-0
# [13] = tested on: SF-295
# [14] = tested on: IGROV-1
# [15] = tested on: Malme-3M
# [16] = tested on: SR
Compound,GI50 [1],GI50 [2],GI50 [3],GI50 [4],GI50 [5],GI50 [6],GI50 [7],GI50 [8],GI50 [9],GI50 [10],GI50 [11],GI50 [12],GI50 [13],GI50 [14],GI50 [15],GI50 [16]
c1ccc(-c2csc3ncn4cnnc4c23)cc1,> 100 µM (inactive),> 100 µM (inactive),91.4 µM (inactive),48.3 µM (inactive),> 100 µM (inactive),> 100 µM (inactive),24.6 µM (inactive),> 100 µM (inactive),> 100 µM (inactive),> 100 µM (inactive),> 100 µM (inactive),55.7 µM (inactive),> 100 µM (inactive),77.8 µM (inactive),–,–
CCCCCCCCCC(=O)CC(=O)c1c(O)cccc1O,44.6 µM (inactive),28.8 µM (inactive),33.4 µM (inactive),35.1 µM (inactive),40 µM (inactive),29.2 µM (inactive),–,27.3 µM (inactive),18.7 µM (inactive),53.1 µM (inactive),62.7 µM (inactive),18.7 µM (inactive),34.1 µM (inactive),32.3 µM (inactive),35.2 µM (inactive),–
CN(N=O)C(=O)NC(CCCCNC(=O)OCc1ccccc1)C(=O)OCc1ccccc1 (centres undefined),23.4 µM (inactive),27.6 µM (inactive),56.8 µM (inactive),20.2 µM (inactive),26.7 µM (inactive),25.3 µM (inactive),18.5 µM (inactive),66.4 µM (inactive),23.7 µM (inactive),> 100 µM (inactive),25 µM (inactive),17.5 µM (inactive),32.4 µM (inactive),> 100 µM (inactive),30.5 µM (inactive),14.9 µM (inactive)
Oc1c(-c2ccccc2)nc2ccccn12,> 100 µM (inactive),> 100 µM (inactive),> 100 µM (inactive),> 100 µM (inactive),> 100 µM (inactive),> 100 µM (inactive),–,> 100 µM (inactive),–,> 100 µM (inactive),> 100 µM (inactive),> 100 µM (inactive),> 100 µM (inactive),> 100 µM (inactive),> 100 µM (inactive),> 100 µM (inactive)
O=C1O[C@@H](c2ccc3c(c2)OCO3)C2C(=O)O[C@@H](c3ccc4c(c3)OCO4)C12 (some centres undefined),> 100 µM (inactive),> 100 µM (inactive),> 100 µM (inactive),> 100 µM (inactive),> 100 µM (inactive),> 100 µM (inactive),> 100 µM (inactive),> 100 µM (inactive),> 100 µM (inactive),> 100 µM (inactive),> 100 µM (inactive),> 100 µM (inactive),> 100 µM (inactive),> 100 µM (inactive),–,–
Cc1cccc(NC(=O)CSc2nnc(-c3ccc(/N=C\c4ccc(Cl)cc4)cc3)o2)c1,–,> 100 µM (inactive),> 100 µM (inactive),> 100 µM (inactive),> 100 µM (inactive),–,–,> 100 µM (inactive),> 100 µM (inactive),> 100 µM (inactive),> 100 µM (inactive),> 100 µM (inactive),> 100 µM (inactive),–,> 100 µM (inactive),> 100 µM (inactive)
CCCCCCCCCCCCOC(=S)NCCCC,18 µM (inactive),17.7 µM (inactive),18.6 µM (inactive),3.37 µM (inactive),34.4 µM (inactive),–,20 µM (inactive),19 µM (inactive),–,37.4 µM (inactive),38 µM (inactive),24.6 µM (inactive),36.9 µM (inactive),25.6 µM (inactive),26.6 µM (inactive),19 µM (inactive)
CC(C)C(=O)N1Cc2cc(Cl)cc(Cl)c2OC(=O)c2ccccc21,28.4 µM (inactive),33 µM (inactive),38 µM (inactive),31.7 µM (inactive),67.9 µM (inactive),22 µM (inactive),24.7 µM (inactive),34 µM (inactive),59.3 µM (inactive),35.2 µM (inactive),42.4 µM (inactive),35 µM (inactive),26.7 µM (inactive),29.5 µM (inactive),20.9 µM (inactive),–
COc1ccccc1C1C(Cl)C(=O)N1NC(=O)Cc1ccccc1 (centres undefined),75.7 µM (inactive),52.4 µM (inactive),62.8 µM (inactive),32.1 µM (inactive),> 100 µM (inactive),> 100 µM (inactive),–,> 100 µM (inactive),> 100 µM (inactive),> 100 µM (inactive),> 100 µM (inactive),> 100 µM (inactive),> 100 µM (inactive),> 100 µM (inactive),53.2 µM (inactive),26.2 µM (inactive)
CCOC(=O)NC(=O)c1cn(CCCCCCCCCCC(=O)NCCCN2CCN(CCCNC(=O)CCCCCCCCCCn3cc(C(=O)NC(=O)OCC)c(=O)[nH]c3=O)CC2)c(=O)[nH]c1=O,> 100 µM (inactive),> 100 µM (inactive),> 100 µM (inactive),> 100 µM (inactive),> 100 µM (inactive),> 10 µM (inactive),> 100 µM (inactive),> 100 µM (inactive),> 100 µM (inactive),> 100 µM (inactive),> 100 µM (inactive),> 100 µM (inactive),> 100 µM (inactive),–,> 100 µM (inactive),> 100 µM (inactive)
Nc1nc(-c2ccc(Cl)c([N+](=O)[O-])c2)cs1,> 100 µM (inactive),> 100 µM (inactive),58.7 µM (inactive),78.9 µM (inactive),52.5 µM (inactive),> 100 µM (inactive),16.2 µM (inactive),> 100 µM (inactive),> 100 µM (inactive),68.2 µM (inactive),–,59.4 µM (inactive),45.9 µM (inactive),> 100 µM (inactive),> 100 µM (inactive),–
COC(=O)C(CCC1(C)OCCO1)=[N+]=[N-],> 100 µM (inactive),> 100 µM (inactive),> 100 µM (inactive),> 100 µM (inactive),> 100 µM (inactive),> 100 µM (inactive),–,> 100 µM (inactive),> 100 µM (inactive),> 100 µM (inactive),> 100 µM (inactive),> 100 µM (inactive),> 100 µM (inactive),> 100 µM (inactive),> 100 µM (inactive),> 100 µM (inactive)
c1cc(C2O[C@H]3CCCN3[C@@H]2c2ccncc2)ccn1 (some centres undefined),–,> 100 µM (inactive),> 100 µM (inactive),> 100 µM (inactive),> 100 µM (inactive),> 100 µM (inactive),–,> 100 µM (inactive),> 100 µM (inactive),> 100 µM (inactive),> 100 µM (inactive),> 100 µM (inactive),> 100 µM (inactive),> 100 µM (inactive),> 100 µM (inactive),–
COc1cc([C@@H]2c3cc4c(c(O)c3C[C@H]3COC(=O)[C@@H]32)OCO4)cc(OC)c1O,0.0237 µM (active),< 0.02 µM (active),0.0205 µM (active),< 0.02 µM (active),< 0.02 µM (active),–,< 0.02 µM (active),0.577 µM (active),0.0281 µM (active),0.796 µM (active),–,0.00596 µM (active),< 0.02 µM (active),0.0277 µM (active),0.0266 µM (active),0.00307 µM (active)

# From ChEMBL document CHEMBL1201862, “PubChem BioAssay data set” (2004)
